Consider one compound from US20230285337A1, “LONG ACTING ANTICANCER COMPOSITIONS” (INTRAGEL THERAPEUTICS LTD., priority 2020, published 2023).

In series [1] the test system is Head and Neck Cancer tumor cells. Kind of series: In vivo testing of the cisplatin formulation for head and neck cancer with radiotherapy. Particulars: nude mice, treatment 20 days after cell injection, 8 Gy irradiation at day 21 and 24, terminated day 50. The method, then:
In this study, 3 experimental groups were used, 6 nude mice per group. All mice were injected with 600000 tumor cells. […] Cisplatin solutions were injected IP for 4 consecutive weeks, a total of 4 administrations. The animals were irradiated with 8 Gy at day 21 and day 24. The experiment was terminated at day 50.

For series [2] the following is noted: rat, in vivo, iv, 5 mg/kg. The method, then:
Polymer-cisplatin was injected subcutaneously to mice at the amount 10, 20, 40 µL per mice that is 4, 8, 16 mg cisplatin/Kg. As controls, 50µL of the drug free polymer was injected and 200 µL IV injection at a dose of 5 mg/kg. The mice were observed daily for morbidity and mortality, and daily for general clinical signs (cage side observation): changes in the skin, fur, eyes, nose, mouth, head, respiration, urine, feces, locomotor, and overall wellness.
An animal showing one of the humane endpoints according to Clinical Signs″, SOP-06-019, were euthanized and subjected to the termination procedure. Blood collection for cisplatin content was at 0(baseline), 1 h, 4 h, 8 h, 24 h,48 h,96 h, 168 h, thereafter once weekly until week 4. Blood for CBC and Biochemistry was at: 0(Baseline), 24 h, 72 h, 168 h thereafter once weekly until sacrifice. For the IV injected mice, plasma was collected at 0(baseline), 5 m, 15 m, 30 m, 1 h, 2 h, 4 h, 8 h, 24 h, 48 h, 72 h, and 96 h. Whole blood and Blood Biochemistry was at 0(Baseline), 24h and 96h. Whole blood was collected from each animal and treated according to common procedures. Urine collection amount was recorded at 0-6, 12-24, 48-72h, 72-96h, 96-120h and once weekly thereafter.

Turning to `[NH2][Pt]([NH2])([Cl])[Cl]` [cisplatin solution, Cisplatin], the “effect on the tumor (tumor size)” value in series [1] was “did not show any effect on the tumor”. In series [2], the “blood count (HGB, RBG & HCT)” value is listed as “drastic drop in markers”; the body weight entry is recorded as “lower body weight”; the “kidneys performance (creatinine and urea excretion)” value is “deteriorated kidneys performance”; the “side effects, behaviour after injection” value is “severe side effects”.
